Assay: xn = mol fraction of the nth substance listed
Details: 101 kPa, Liquid

Clc1ccccc1 [chlorobenzene] + CCCCCCCCCCO
Details	mass density [kg/m3]	speed of sound [m/s]	viscosity [mPa·s]
298.15 K, x1 = 0.1664	852.913	1362.6	7.762
298.15 K, x1 = 0.322	881.587	1344.4	5.123
298.15 K, x1 = 0.4609	911.692	1327	3.484
298.15 K, x1 = 0.5731	939.879	1311.7	2.539
298.15 K, x1 = 0.6619	965.236	1299.5	1.967
298.15 K, x1 = 0.7456	992.108	1288.5	1.517
298.15 K, x1 = 0.8174	1017.95	1280.1	1.243
298.15 K, x1 = 0.8857	1045.67	1273.3	1.017
298.15 K, x1 = 0.9426	1071.48	1269.5	0.865
298.15 K, x1 = 1	1100.67	1268	0.757
303.15 K, x1 = 0.1664	848.821	1343.9	6.542
303.15 K, x1 = 0.322	877.329	1325	4.407
303.15 K, x1 = 0.4609	907.247	1307.2	3.058
303.15 K, x1 = 0.5731	935.236	1292.4	2.262
303.15 K, x1 = 0.6619	960.447	1280.9	1.771
303.15 K, x1 = 0.7456	987.138	1270.5	1.388
303.15 K, x1 = 0.8174	1012.83	1262.6	1.147
303.15 K, x1 = 0.8857	1040.32	1256.1	0.949
303.15 K, x1 = 0.9426	1065.89	1252.2	0.808
303.15 K, x1 = 1	1095.1	1249.4	0.714
308.15 K, x1 = 0.1664	845.166	1326	5.554
308.15 K, x1 = 0.322	873.388	1306.4	3.814
308.15 K, x1 = 0.4609	903.044	1288.1	2.695
308.15 K, x1 = 0.5731	930.8	1272.9	2.021
308.15 K, x1 = 0.6619	955.749	1260.8	1.597
308.15 K, x1 = 0.7456	982.146	1249.5	1.273
308.15 K, x1 = 0.8174	1007.56	1240.8	1.045
308.15 K, x1 = 0.8857	1034.75	1234.6	0.868
308.15 K, x1 = 0.9426	1060.08	1231	0.756
308.15 K, x1 = 1	1089.08	1230.9	0.677
313.15 K, x1 = 0.1664	841.509	1308.6	4.751
313.15 K, x1 = 0.322	869.536	1288.1	3.323
313.15 K, x1 = 0.4609	898.972	1269.1	2.388
313.15 K, x1 = 0.5731	926.509	1253.3	1.816
313.15 K, x1 = 0.6619	951.271	1241.1	1.454
313.15 K, x1 = 0.7456	977.488	1230.1	1.156
313.15 K, x1 = 0.8174	1002.68	1222.1	0.968
313.15 K, x1 = 0.8857	1029.64	1216.5	0.809
313.15 K, x1 = 0.9426	1054.84	1213.4	0.702
313.15 K, x1 = 1	1083.66	1212.6	0.617

Clc1ccccc1 [chlorobenzene] + CCCCCCCCCO
x1 = 1
Details	mass density [kg/m3]	speed of sound [m/s]	viscosity [mPa·s]
298.15 K	1100.67	1268	0.757
303.15 K	1095.1	1249.4	0.714
308.15 K	1089.08	1230.9	0.677
313.15 K	1083.66	1212.6	0.617

Clc1ccccc1 [chlorobenzene] + CCCCCCCCO
Details	mass density [kg/m3]	speed of sound [m/s]	viscosity [mPa·s]
298.15 K, x1 = 0.1423	848.715	1334.1	5.448
298.15 K, x1 = 0.2807	877.644	1319.1	3.87
298.15 K, x1 = 0.4121	908.104	1303.7	2.788
298.15 K, x1 = 0.5237	936.698	1291.1	2.116
298.15 K, x1 = 0.6158	962.489	1281.2	1.692
298.15 K, x1 = 0.7073	990.466	1272.7	1.363
298.15 K, x1 = 0.7885	1017.46	1267	1.132
298.15 K, x1 = 0.8662	1045.68	1264	0.956
298.15 K, x1 = 0.9331	1072.02	1264	0.841
298.15 K, x1 = 1	1100.97	1268	0.757
303.15 K, x1 = 0.1423	844.912	1317.5	4.64
303.15 K, x1 = 0.2807	873.625	1303.4	3.352
303.15 K, x1 = 0.4121	903.886	1289.6	2.455
303.15 K, x1 = 0.5237	932.283	1277.8	1.89
303.15 K, x1 = 0.6158	957.91	1268.6	1.528
303.15 K, x1 = 0.7073	985.68	1260	1.243
303.15 K, x1 = 0.7885	1012.47	1253.4	1.04
303.15 K, x1 = 0.8662	1040.47	1248.7	0.885
303.15 K, x1 = 0.9331	1066.6	1247.5	0.782
303.15 K, x1 = 1	1095.1	1249.4	0.714
308.15 K, x1 = 0.1423	841.161	1302.6	3.981
308.15 K, x1 = 0.2807	869.616	1289.5	2.919
308.15 K, x1 = 0.4121	899.625	1276	2.174
308.15 K, x1 = 0.5237	927.793	1263.8	1.678
308.15 K, x1 = 0.6158	953.186	1254.6	1.366
308.15 K, x1 = 0.7073	980.694	1245.7	1.119
308.15 K, x1 = 0.7885	1007.21	1238.7	0.956
308.15 K, x1 = 0.8662	1034.92	1233.4	0.833
308.15 K, x1 = 0.9331	1060.82	1230.9	0.752
308.15 K, x1 = 1	1089.08	1230.9	0.677
313.15 K, x1 = 0.1423	836.375	1285.8	3.436
313.15 K, x1 = 0.2807	864.727	1273.2	2.562
313.15 K, x1 = 0.4121	894.659	1260.3	1.934
313.15 K, x1 = 0.5237	922.757	1248.9	1.528
313.15 K, x1 = 0.6158	948.078	1239.6	1.267
313.15 K, x1 = 0.7073	975.5	1230.7	1.037
313.15 K, x1 = 0.7885	1001.95	1223.5	0.891
313.15 K, x1 = 0.8662	1029.57	1217.8	0.76
313.15 K, x1 = 0.9331	1055.42	1214.3	0.681
313.15 K, x1 = 1	1083.66	1212.6	0.617

Source: the NIST ThermoML archive (doi:10.1021/je060353z)
